From patent US20120122928A1 (priority 2010, published 2012)

Experiments:
Phytophthora infestans = type: in vivo; settings: young tomato plants sprayed, active ingredient concentration of 100 (unit not given); inoculated 1 day after treatment; evaluation 7 days after inoculation; 100% = no infection
physchem = settings: pH 2.7
Plasmopara viticola = assay: Plasmopara test (grapevine) / protective; type: in vivo; settings: young grapevine plants sprayed, active ingredient concentration 10 ppm; evaluation 6 days after inoculation; 100% = no infection
Description: Plasmopara Test (Grapevine)/Protective
To produce an appropriate active ingredient formulation, 1 part by weight of active ingredient is mixed with the specified amounts of solvent and emulsifier, and the concentrate is diluted with water to the desired concentration.
To test for protective efficacy, young plants are sprayed with the active ingredient formulation at the stated application rate. After the spray coating has dried on, the plants are inoculated with an aqueous spore suspension of Plasmopara viticola and then remain in an incubation cabin at approx. 20° C. and 100% relative air humidity for 1 day. Subsequently, the plants are placed in a greenhouse at approx. 21° C. and approx. 90% air humidity for 4 days. The plants are then moistened and placed in an incubation cabin for 1 day.
Evaluation follows 6 days after the inoculation. 0% means an efficacy which corresponds to that of the control, whereas an efficacy of 100% means that no infection is observed.
In this test, the following inventive compounds show, at an active ingredient concentration of 10 ppm, an efficacy of 70% or more: […]

[1] = LC-MS determination in the acidic range, pH 2.7, 0.1% aqueous formic acid and acetonitrile
Peronospora brassicae = assay: Peronospora test (oilseed rape seeds) / seed treatment; type: in vivo; settings: dose 50 g/dt, 14-day-old plants inoculated, incubated 7 days, infected leaf area, 100% = no disease
Description: Peronospora Test (Oilseed Rape Seeds)/Seed Treatment
The test was conducted under greenhouse conditions.
Oilseed rape seeds treated with an inventive active compound or a combination of inventive active compounds dissolved in N-methyl-2-pyrrolidone and diluted with water to the desired dose were sown in 6*6 cm vessels. The vessels contain 4 cm of a 1:1 mixture of steam-treated field soil and sand. The plants grew at 10° C.
14-day-old plants were inoculated with an aqueous spore suspension of Peronospora brassicae. The vessels containing the plants were incubated in a greenhouse at a temperature of 15° C. and a relative air humidity of 100% for 7 days.
The assessment of the test included the evaluation of the infected leaf area per plant. 0% means an efficiency corresponding to that of the control, while an efficiency of 100% means that no disease is observed.

Compound | % eff. (Phytophthora infestans) [%] | chromatographic logP (physchem) | % eff. (Plasmopara viticola) [%] | Log P [a] [1] | % eff. (Peronospora brassicae) [%]
COC(c1ccccc1)C1CC(c2csc(C3(F)CCN(C(=O)Cn4nc(C(F)F)cc4C(F)F)CC3)n2)=NO1 (stereo not shown) [I-15, 2-[3,5-Bis(difluoromethyl)-1H-pyrazol-1-yl]-1-[4-fluoro-4-(4-{5-[methoxy(phenyl)methyl]-4,5-dihydro-1,2-oxazol-3-yl}-1,3-thiazol-2-yl)piperidin-1-yl]ethanone] | 95 | 3.56 | – | – | –
O=C(Nc1cc(C(F)F)ccc1C(F)F)N1CCC(c2nc(C3=NOC(C(F)(F)c4ccccc4)C3)cs2)CC1 (stereo not shown) [I-16, N-[2,5-Bis(difluoromethyl)phenyl]-4-(4-{5-[difluoro(phenyl)methyl]-4,5-dihydro-1,2-oxazol-3-yl}-1,3-thiazol-2-yl)piperidine-1-carboxamide] | 100 | 3.64 | 87 | – | –
O=C(Cn1nc(C(F)F)cc1C(F)F)N1CCC(c2nc(C3=NOC(COc4ccccc4F)C3)cs2)CC1 (stereo not shown) [I-3] | 100 | – | 100 | 3.19 | 98
O=C(Cn1nc(C(F)F)cc1C(F)F)N1CCC(c2nc(C3=NOC(COc4c(Br)cccc4Br)C3)cs2)CC1 (stereo not shown) [I-36] | 100 | – | 100 | 3.9 | 78
Fc1cccc(F)c1C(F)C1CC(c2csc(C3CCN(C(=S)Cn4nc(C(F)F)cc4C(F)F)CC3)n2)=NO1 (stereo not shown) [I-18] | 95 | – | 100 | 3.81^[a] | –
Cc1cc(C(F)(F)F)nn1CC(=O)N1CCC(c2nc(C3=NOC(COc4c(F)cccc4Cl)C3)cs2)CC1 (stereo not shown) [I-46] | 95 | – | 98 | 3.54 | –
Cc1ccc(C)c(NC(=S)N2CCC(c3nc(C4=NOC(C(F)c5ccccc5)C4)cs3)CC2)c1 (stereo not shown) [I-39] | 100 | – | 78 | 3.61^[a] | –
CC(C)(c1c(F)cccc1Cl)C1CC(c2csc(C3CCN(C(=O)Cn4nc(C(F)F)cc4C(F)F)CC3)n2)=NO1 (stereo not shown) [I-69] | 94 | – | 95 | 4.32 | –
Cc1ccc(Cl)cc1NC(=O)N1CCC(c2nc(C3=NOC(COc4c(F)cccc4Cl)C3)cs2)CC1 (stereo not shown) [I-51] | 95 | – | 93 | 3.81 | –
O=C(Cn1nc(C(F)F)cc1C(F)F)N1CCC(c2nc(C3=NOC(COc4c(Cl)cccc4Cl)C3)cs2)CC1 (stereo not shown) [I-1] | 100 | – | 100 | 3.7 | –
Cc1ccc(C)c(NC(=S)N2CCC(c3nc(C4=NOC(C(F)c5c(F)cccc5F)C4)cs3)CC2)c1 (stereo not shown) [I-32] | 94 | – | 78 | 3.80^[a] | –
O=C(Cn1nc(C(F)F)cc1C(F)F)N1CCC(c2nc(C3=NOC(CSc4c(Cl)cccc4Cl)C3)cs2)CC1 (stereo not shown) [I-58] | 94 | – | 100 | 3.99 | –
O=C(Cn1nc(C(F)F)cc1C(F)F)N1CCC(c2nc(C3=NOC(CSc4ccccc4Cl)C3)cs2)CC1 (stereo not shown) [I-61] | 91 | – | 93 | 3.68 | –
O=C(Nc1cc(C(F)F)ccc1C(F)F)N1CCC(c2nc(C3=NOC(C(F)(F)c4c(F)cccc4F)C3)cs2)CC1 (stereo not shown) [I-35] | 95 | – | 100 | 3.61^[a] | –
Fc1cccc(F)c1C(F)(F)C1CC(c2csc(C3CCN(C(=S)Cn4nc(C(F)F)cc4C(F)F)CC3)n2)=NO1 (stereo not shown) [I-42] | 95 | – | 100 | 3.94^[a] | –
COc1ccccc1OCC1CC(c2csc(C3CCN(C(=O)Cn4nc(C(F)F)cc4C(F)F)CC3)n2)=NO1 (stereo not shown) [I-26] | 100 | – | 96 | 3.01 | –

Compound | % eff. (Phytophthora infestans) [%] | chromatographic logP (physchem) | % eff. (Plasmopara viticola) [%] | Log P [a] [1] | % eff. (Peronospora brassicae) [%]
Cc1ccc(Cl)cc1NC(=O)N1CCC(c2nc(C3=NOC(COc4c(F)cccc4F)C3)cs2)CC1 (stereo not shown) [I-50] | 92 | – | 97 | 3.66 | –
Cc1ccc(C)c(NC(=O)N2CCC(c3nc(C4=NOC(COc5ccccc5)C4)cs3)CC2)c1 (stereo not shown) [I-41] | 100 | – | 94 | 3.36 | –
O=C(Nc1cc(C(F)F)ccc1C(F)F)N1CCC(c2nc(C3=NOC(C(F)c4ccccc4)C3)cs2)CC1 (stereo not shown) [I-24] | 100 | – | 94 | 3.41^[a] | –
Cc1cc(C(F)(F)F)nn1CC(=O)N1CCC(c2nc(C3=NOC(COc4c(Cl)cccc4Cl)C3)cs2)CC1 (stereo not shown) [I-65] | 84 | – | 100 | 3.9 | –
CC(=O)c1ccccc1OCC1CC(c2csc(C3CCN(C(=O)Cn4nc(C(F)F)cc4C(F)F)CC3)n2)=NO1 (stereo not shown) [I-12] | 100 | – | 70 | 2.93 | –
FC(F)c1cc(C(F)F)n(CC(=S)N2CCC(c3nc(C4=NOC(C(F)(F)c5ccccc5)C4)cs3)CC2)n1 (stereo not shown) [I-31, 2-[3,5-Bis(difluoromethyl)-1H-pyrazol-1-yl]-1-[4-(4-{5-[difluoro(phenyl)methyl]-4,5-dihydro-1,2-oxazol-3-yl}-1,3-thiazol-2-yl)piperidin-1-yl]ethanethione] | 100 | 3.88 | 85 | – | –
O=C(Nc1cc(C(F)F)ccc1C(F)F)N1CCC(c2nc(C3=NOC(C(F)c4c(F)cccc4F)C3)cs2)CC1 (stereo not shown) [I-30] | 95 | – | 100 | 3.60^[a] | –
O=C(Cn1nc(C(F)F)cc1C(F)F)N1CCC(c2nc(-c3cc(COc4ccccc4)on3)cs2)CC1 [I-44] | 95 | – | 100 | 3.63 | –
Cc1cc(C(F)(F)F)nn1CC(=O)N1CCC(c2nc(C3=NOC(C(C)(C)c4c(F)cccc4F)C3)cs2)CC1 (stereo not shown) [I-62] | 91 | – | 96 | 4.09 | –
Cc1ccc(C)c(NC(=S)N2CCC(c3nc(C4=NOC(C(F)(F)c5ccccc5)C4)cs3)CC2)c1 (stereo not shown) [I-21] | 95 | – | 85 | 3.86^[a] | –
FC(F)c1cc(C(F)F)n(CC(=S)N2CCC(c3nc(C4=NOC(COc5ccccc5)C4)cs3)CC2)n1 (stereo not shown) [I-34] | 100 | – | 96 | 3.73 | –
O=C(Cn1nc(C(F)F)cc1C(F)F)N1CCC(c2nc(C3=NOC(C(F)c4c(F)cccc4F)C3)cs2)CC1 (stereo not shown) [I-17] | 95 | – | 100 | 3.36^[a] | –
Cc1cc(C(F)F)nn1CC(=O)N1CCC(c2nc(C3=NOC(COc4c(Cl)cccc4Cl)C3)cs2)CC1 (stereo not shown) [I-45] | 93 | – | 100 | 3.35 | –
O=C(CCC1CC(c2csc(C3CCN(C(=O)Cn4nc(C(F)F)cc4C(F)F)CC3)n2)=NO1)c1ccccc1 (stereo not shown) [I-6] | 100 | – | 96 | 3.16 | –
O=C(Cn1nc(C(F)F)cc1C(F)F)N1CCC(c2nc(C3=NOC(C(F)c4ccccc4)C3)cs2)CC1 (stereo not shown) [I-5] | 100 | – | 100 | 3.23^[a] | –
